Target: T1, recombinant human GSK3β (Homo sapiens, UniProt P49841)
T1 construct: purchased Dundee University, UK
Assay: GSK3β Scintillation Proximity Assay (ATP competition)
Format: biochemical
Details: ATP 1 μM; Km of ATP for GSK3β 20 μM; peptide substrate 1 μM
Protocol: Determination of ATP Competition in Scintillation Proximity GSK3β Assay.
GSK3β Scintillation Proximity Assay.
The competition experiments were carried out in duplicate with 10 different concentrations of the inhibitors in clear-bottom microtiter plates (Wallac, Finland). A biotinylated peptide substrate, Biotin-Ala-Ala-Glu-Glu-Leu-Asp-Ser-Arg-Ala-Gly-Ser(PO3H2)-Pro-Gln-Leu (AstraZeneca, Lund), was added at a final concentration of 1 μM in an assay buffer containing 1 mU recombinant human GSK3β (Dundee University, UK), 12 mM morpholinepropanesulfonic acid (MOPS), pH 7.0, 0.3 mM EDTA, 0.01% β-mercaptorethanol, 0.004% Brij 35 (a […] detergent), 0.5% glycerol and 0.5 μg BSA/25 μl. The reaction was initiated by the addition of 0.04 μCi [γ-^33P]ATP (Amersham, UK) and unlabelled ATP at a final concentration of 1 μM and assay volume of 25 μl. After incubation for 20 minutes at room temperature, each reaction was terminated by the addition of 25 μl stop solution containing 5 mM EDTA, 50 μM ATP, 0.1% Triton X-100 and 0.25 mg streptavidin coated Scintillation Proximity Assay (SPA) beads (Amersham, UK). After 6 hours the radioactivity was determined in a liquid scintillation counter (1450 MicroBeta Trilux, Wallac). The inhibition curves were analysed by non-linear regression using GraphPad Prism, USA. […]

T1 sequence (P49841 whole entry): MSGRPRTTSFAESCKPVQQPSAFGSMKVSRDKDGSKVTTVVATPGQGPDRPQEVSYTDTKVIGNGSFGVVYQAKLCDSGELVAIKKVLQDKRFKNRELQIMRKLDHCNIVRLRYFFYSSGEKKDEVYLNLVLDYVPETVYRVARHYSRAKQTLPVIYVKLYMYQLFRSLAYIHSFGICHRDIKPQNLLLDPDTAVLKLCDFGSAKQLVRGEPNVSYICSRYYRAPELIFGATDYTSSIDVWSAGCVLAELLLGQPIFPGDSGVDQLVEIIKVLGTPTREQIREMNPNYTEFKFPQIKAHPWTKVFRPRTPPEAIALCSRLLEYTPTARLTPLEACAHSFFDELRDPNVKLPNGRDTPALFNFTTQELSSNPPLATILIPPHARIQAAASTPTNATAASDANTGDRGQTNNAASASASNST

In the case of `N#Cc1ccc2[nH]c(O)c(-c3ccc(C(=O)O)cn3)c2c1` [compound of formula (I), 6-(5-cyano-2-hydroxy-1H-indol-3-yl)pyridine-3-carboxylic acid], the Ki is reported as 32 nM.

Reference: patent publication US20120101132A1, “New Substituted Oxindole Derivative” (priority 2008, published 2012)
